The test system of assay [1] is rat phrenic nerve, hemi-diaphragm preparation. The assay is described as follows: Rat phrenic nerve hemi-diaphragm preparation, neostigmine reversibility. The note with it: FIG. 8, in vitro; for neostigmine reversibility of the loss of strength (muscle weakness): 1 μM neostigmine. The protocol:
Male, Sprague-Dawley rats weighing 100-180 g were obtained from Envigo and euthanized by exposure to 4.5% isoflurane followed by exsanguination. Right and left hemi-diaphragms were removed and placed in oxygen bubbled, cold saline until use. The saline contained, in mM, 140 NaCl, 5 KCl, 1.6 CaCl2·6H2O, 1 NaH2PO4, 6 NaHCO3, 5 D-glucose, 10 HEPES, pH 7.2 adjusted with 1 N NaOH, and was bubbled with 100% oxygen at 22° C. The costal cartilage of the hemi-diaphragm was secured to the floor of a 20 mL volume chamber with a metal hook and the crural end attached to a metal hook and thread leading to a force transducer (iWorx Systems, Dover, NH) and a data acquisition program (Labscribe). The phrenic nerve was introduced into a suction electrode and stimulated (pulse width=0.5 msec, supramaximal voltage=1 V) with a train of four, i.e., four stimuli in two seconds, repeated every minute. The first pulse, T1, was used as a measure of muscle strength. […]
In the figure CONTROL is the force of contraction before addition of test substances, TEST is the force after the addition of test substances, NEOSTIG is the force of contraction after the addition of 1 μM neostigmine, ROC is rocuronium, and SUC is succinylcholine.

Assay [2] deals with T1, adult, human muscle, nicotinic acetylcholine receptor (Homo sapiens, UniProt P02708+P11230+Q04844+Q07001).
T1 construct: expressed in transfected cells; host or cells: HEK-293
The assay is described as follows: Patch clamp electrophysiology in transfected HEK-293 cells. The note with it: outside-out patch, 10 μM compound, 300 μM acetylcholine, -50 mV; for competition with acetylcholine at the receptor (summary graph): FIG. 9B. The class given is cell-based. The protocol:
Patch clamp electrophysiology: HEK-293 cells were transfected with the cDNA for adult, human muscle acetylcholine receptors and prepared for patch clamp recording as described previously. Immediately before the experiment, the culture medium was replace with an extracellular solution (ECS) contains 150 mM NaCl, 5.6 mM KCl, 1.8 mM CaCl2, 1.0 mM MgCl2, and 10 mM HEPES, pH 7.3. Patch pipettes filled with a solution consisting of 140 mM KCl, 5 mM EGTA, 5 mM MgCl2, and 10 mM HEPES, pH 7.3, had resistances of 3 to 4 MΩ. An outside-out patch with a seal resistance of >2 GΩ was excised from a cell and moved into position at the outflow of a HSSE-2 rapid perfusion system (ALA Scientific Instruments, Westbury, NY). The patch was rapidly and transiently perfused with 300 μM acetylcholine to activate >95% of the channels at a holding potential of −50 mV. This was the control trace; the figures show the average of 5 control traces. Subsequently, the same patch was used to test for agonist activity by the carborane compounds by switching to a reservoir containing 300-1000 μM of the compound, repeated 5 times. To test for antagonism, the patch was equilibrated with 10 μM of the compound for >3 s followed by rapid perfusion of 300 μM acetylcholine+compound. Each series of traces using a compound was followed a return to control conditions (recovery) to determine that the control current hadn't changed by more than 20%. The peak current for each series of traces was calculated. The decrease in peak current represented a combination of competitive and open-channel block by the compound. The results are illustrated in FIGS. 9A and 9B.

The subject of another assay is mice. The note with it: FIG. 6; dose response.

“Also recorded” adds a separate entry of the source.

Turning to `C=CC[N+]1([C@H]2C[C@H]3[C@@H]4CC[C@H]5C[C@H](O)[C@@H](N6CCOCC6)C[C@]5(C)[C@H]4CC[C@]3(C)[C@H]2OC(C)=O)CCCC1` [rocuronium, Rocuronium bromide, reference compound], in assay [1], the “neostigmine reversibility of the loss of strength (muscle weakness)” value is on record as “reversed by neostigmine”.
Turning to “1,7-bis(N, N, N-trimethylpropan-1-aminium)-1,7-closo-carborane di-iodide [compound 2]”, in assay [1], the “mechanism of action (depolarizing or non-depolarizing) from neostigmine reversal” value is reported as “non-depolarizing NMBA; also recorded: non-depolarizers” and the “neostigmine reversibility of the loss of strength (muscle weakness)” value is “reversed by neostigmine”. The “competition with acetylcholine at the receptor (summary graph)” value (“competition … (summary graph)” for short) in assay [2] is “compete with acetylcholine”.
As for “1,2-bis(N, N, N-trimethylpropan-1-aminium)-1,2-closo-carborane di-iodide [compound 1]”, in assay [1], the “mechanism of action (depolarizing or non-depolarizing) from neostigmine reversal” value is “non-depolarizing NMBA; also recorded: non-depolarizers” and the “neostigmine reversibility of the loss of strength (muscle weakness)” value is “reversed by neostigmine”. In addition, the “competition … (summary graph)” value in assay [2] is “compete with acetylcholine”.
With “1,12-bis(N, N, N-trimethylpropan-1-aminium)-1,12-closo-carborane di-iodide [compound 3]”, in assay [1], the “mechanism of action (depolarizing or non-depolarizing) from neostigmine reversal” value is given as “non-depolarizing NMBA; also recorded: non-depolarizers” and the “neostigmine reversibility of the loss of strength (muscle weakness)” value is given as “reversed by neostigmine”. Moreover, in assay [2] (FIG. 9A), the “competition with acetylcholine at the receptor (single compound traces)” value is “competes reversibly with acetylcholine”. The “competition … (summary graph)” value in assay [2] is listed as “compete with acetylcholine”. Also, the “relative potency for loss of mouse grip strength as a function of dose injected” value with mice is given as “more potent than compound 1”.
Consider `C[N+](C)(C)CCOC(=O)CCC(=O)OCC[N+](C)(C)C` [succinylcholine, succinylcholine chloride, reference compound], for which the “neostigmine reversibility of the loss of strength (muscle weakness)” value in assay [1] is on record as “not reversed by neostigmine”.

Source of the values: patent US12168652B2, “Neuromuscular blocking agents” (The Curators of the University of Missouri, priority 2018, dated 2024).
